According to the NIST ThermoML archive (doi:10.1016/j.jct.2018.01.021):

Experiment: mn = molality of the nth substance listed, in mol/kg
Conditions: 100 kPa, Liquid; for speed of sound: Frequency=3 MHz, Single path-length method; for mass density: Vibrating tube method

O [water] + [Cl-].[Na+]
Conditions | speed of sound [m/s]
298.15 K, m2 = 0 | 1497.7

[Cl-].[Na+] [sodium chloride] + O
298.15 K
Conditions | mass density [kg/m3] | speed of sound [m/s]
m1 = 0.151 | 1003.43 | 1507.5
m1 = 1.021 | 1037.99 | 1560.5

C[N+](C)(C)[O-] [trimethylamine oxide] + O
m1 = 1.08
Conditions | mass density [kg/m3] | speed of sound [m/s]
293.15 K | 1000.9 | 1564.8
298.15 K | 999.7 | 1575.7
303.15 K | 998.26 | 1584.2
308.15 K | 996.53 | 1589.4
313.15 K | 994.81 | 1595.5

O [water] + C[N+](C)(C)C[C@H](O)CC(=O)[O-]
m2 = 0
Conditions | speed of sound [m/s]
298.15 K | 1497.7
308.15 K | 1520.7

O=C[C@H](O)[C@@H](O)[C@H](O)[C@H](O)CO [D-glucose] + O
298.15 K
Conditions | mass density [kg/m3] | speed of sound [m/s]
m1 = 0.153 | – | 1507.3
m1 = 1.13 | 1064.98 | 1565.3

O [water] + O=C[C@H](O)[C@@H](O)[C@H](O)[C@H](O)CO
Conditions | speed of sound [m/s]
298.15 K, m2 = 0 | 1497.7

C[N+](C)(C)C[C@H](O)CC(=O)[O-] [(R)-3-hydroxy-4-(trimethylammonio)butanoate] + O
Conditions | mass density [kg/m3] | speed of sound [m/s]
293.15 K, m1 = 0.0937 | 1001.09 | 1492.4
293.15 K, m1 = 0.1233 | 1001.98 | 1495.2
293.15 K, m1 = 0.1554 | 1002.94 | 1498.3
293.15 K, m1 = 0.1924 | 1004.04 | 1501.8
293.15 K, m1 = 0.2249 | 1004.99 | 1504.9
293.15 K, m1 = 0.2574 | 1005.94 | 1507.9
293.15 K, m1 = 0.276 | 1006.48 | 1509.7
293.15 K, m1 = 0.3064 | 1007.35 | 1512.5
298.15 K, m1 = 0.0497 | 998.57 | 1502.3
298.15 K, m1 = 0.0994 | 1000.06 | 1506.9
298.15 K, m1 = 0.1214 | 1000.71 | 1508.9
298.15 K, m1 = 0.1509 | 1001.58 | 1511.6
298.15 K, m1 = 0.2007 | 1003.03 | 1516.1
298.15 K, m1 = 0.2203 | 1003.6 | 1517.8
298.15 K, m1 = 0.2572 | 1004.66 | 1521.2
298.15 K, m1 = 0.3012 | 1005.91 | 1525.1
303.15 K, m1 = 0.0477 | 997.1 | 1514.3
303.15 K, m1 = 0.1029 | 998.75 | 1519.2
303.15 K, m1 = 0.1227 | 999.33 | 1521
303.15 K, m1 = 0.1531 | 1000.21 | 1523.6
303.15 K, m1 = 0.2046 | 1001.71 | 1528.1
303.15 K, m1 = 0.2174 | 1002.07 | 1529.2
303.15 K, m1 = 0.255 | 1003.14 | 1532.4
303.15 K, m1 = 0.3041 | 1004.51 | 1536.7
308.15 K, m1 = 0.0512 | 995.58 | 1525.2
308.15 K, m1 = 0.0938 | 996.84 | 1528.8
308.15 K, m1 = 0.1229 | 997.69 | 1531.2
308.15 K, m1 = 0.1447 | 998.32 | 1533.1
308.15 K, m1 = 0.1952 | 999.78 | 1537.3
308.15 K, m1 = 0.2238 | 1000.59 | 1539.7
308.15 K, m1 = 0.2282 | 1000.71 | 1540.1
308.15 K, m1 = 0.304 | 1002.84 | 1546.4
313.15 K, m1 = 0.0519 | 993.75 | 1534.1
313.15 K, m1 = 0.1012 | 995.21 | 1538.2
313.15 K, m1 = 0.1204 | 995.77 | 1539.7
313.15 K, m1 = 0.1428 | 996.42 | 1541.5
313.15 K, m1 = 0.1922 | 997.84 | 1545.5
313.15 K, m1 = 0.2107 | 998.36 | 1547
313.15 K, m1 = 0.2436 | 999.29 | 1549.7
313.15 K, m1 = 0.3053 | 1001 | 1554.7

O [water] + C[N+](C)(C)[O-]
m2 = 0
Conditions | speed of sound [m/s]
298.15 K | 1497.7
308.15 K | 1520.7
